Source: US11497731B2, “β-lactamase inhibitor” (NATIONAL UNIVERSITY CORPORATION TOKAI NATIONAL HIGHER …, priority 2018, dated 2022)
Like-named read-outs stand apart in the source and are kept apart here.

How the values were obtained:
[1] = system: β-lactamase-producing bacteria; assay: Drug susceptibility tests, summary statements over all strains; format: cell-based, E. coli; conditions: addition of the compound
Experimental: (§1) Plates for drug susceptibility test measurement were prepared by using 96- or 384-well U-bottom plates, a Mueller-Hinton liquid medium, and antimicrobial drugs (ceftazidime (CAZ), imipenem (IPM), meropenem (MPM), doripenem (DPM), and biapenem (BPM)). A 1/2 antimicrobial drug dilution series was made up to well 11 of, for example, a 96-well U-bottom plate so that the leftmost well 1 of row A contained an antimicrobial drug at the maximum concentration, the antimicrobial drug concentration in well 2 to the right of well 1 was 1/2 of the maximum concentration, the antimicrobial drug concentration in well 3 to the right of well 2 was 1/4 of the maximum concentration, and so on. […] An antimicrobial drug dilution series was made in each of rows B and C in the same manner as in row A. Further, 10 μg/mL and 50 μg/mL of a test substance (compound A) were added to row B and row C, respectively (FIG. 1).
(§2) Bacteria into which a plasmid encoding a class B β-lactamase (metallo-β-lactamase (MBL): NDM-1, or VIM-2) was introduced (pBCSK (+)/E. coli DH5a) were used as test bacteria. The test bacteria were adjusted to 10^8 cfu/mL with a Mueller-Hinton medium. Further, the test bacteria were diluted 10-fold with a Mueller-Hinton medium (10^7 cfu/mL). 5 μl of the test bacteria was collected and inoculated into the plates for drug susceptibility test measurement. After overnight culture at 35° C., the growth of the test bacteria was visually checked. The concentration of the antimicrobial drug in a well containing the lowest concentration of the antimicrobial drug among the wells in which no growth of the test bacteria was confirmed was defined as the minimal inhibitory concentration value (FIG. 1).

[2] = system: bacteria into which a plasmid encoding VIM-2 was introduced (pBCSK (+)/E. coli DH5a); assay: Drug susceptibility test (MIC), VIM-2-producing strain; format: cell-based; conditions: Escherichia coli
Experimental: as §1, §2
(§3) The drug susceptibility test was performed in the same manner as in Test Example 1, except that compounds A to C and E to I were used as test substances.
(§4) The test was performed in the same manner as in Test Example 1, except that X2a, X2b, X2c, X2d, X3a, and X4 were used as test substances (inhibitors). The inhibitor concentration was 10 μg/mL.

[3] = system: strains of Enterobacteriaceae bacteria that produce class B β-lactamases; assay: Drug susceptibility test 2; format: cell-based; conditions: addition of compound A
VIM-2 = VIM-2 (Escherichia coli, UniProt Q5U7L7); assay: Inhibition constant (Ki) measurement test, VIM-2; format: biochemical; conditions: imipenem substrate, enzyme 10 nM, 30° C., Lineweaver-Burk; read-out: Inhibition constant Ki VIM-2
Experimental: (§5) The inhibition constant (Ki) measurement test was performed in the following manner. The inhibition constant (Ki) was measured using various metallo-β-lactamases (final concentration: 10 nM). The imipenem decomposition activity (Δabs/min) at each point under the conditions of absorbance: 298 nm and temperature: 30° C. was measured by varying the concentration of imipenem as a substrate and the concentrations of test substances (compounds A to E) as inhibitors. Each measured value was fitted to the Lineweaver-Burk plot equation to calculate Ki.
(§6) The test was performed in the same manner as in Test Example 6, except that X2a, X2b, X2c, X2d, X3a, and X4 were used as test substances (inhibitors).

IMP-1 = IMP-1 (Serratia marcescens, UniProt P52699); assay: Inhibition constant (Ki) measurement test, IMP-1; format: biochemical; conditions: imipenem substrate, enzyme 10 nM, 30° C., Lineweaver-Burk; read-out: Inhibition constant Ki IMP-1
Experimental: as §5, §6

[4] = system: Empty vector (no class B lactamase produced), pBCSK (+)/E. coli DH5a; assay: Drug susceptibility test (MIC), empty vector strain; format: cell-based; conditions: Escherichia coli
[5] = system: strain of Escherichia coli in which a plasmid encoding a class B β-lactamase (IMP-1) was introduced; assay: Mouse abdominal infection model, E. coli IMP-1 strain; format: in vivo, mice
Experimental: After mice were infected with a laboratory strain (a strain of Escherichia coli in which a plasmid encoding a class B β-lactamase (IMP-1) was introduced), a test substance (compound A) was administered; and survival was observed. Specifically, the animal study was performed as follows.
The laboratory strain grown overnight on a Mueller-Hinton agar medium was scraped with a sterile swab, suspended in physiological saline, adjusted to 2-5×10^8 CFU/mL, and mixed with an equal amount of a 10% mucin solution (1-2.5×10^8 CFU/mL) to prepare a bacterial liquid. Mice (Crl:CD1(ICR), male, 4 weeks old (Charles River Laboratories Japan, Inc.)) acclimated for 4 days after arrival were weighed, and then infected by intraperitoneal administration of 250 μL of the prepared bacterial liquid per mouse. An antimicrobial drug (meropenem trihydrate (WAKO 137-15674)) and the test substance were dissolved in physiological saline. A first intraperitoneal administration of the antimicrobial drug (0.2 mg/kg) and/or the test substance (100 mg/kg) was performed 1 hour after infection. A second administration was performed 3 hours after infection, in the same manner as the first administration (up to this point, day 0). […]

[6] = system: bacteria into which a plasmid encoding NDM-1 was introduced (pBCSK (+)/E. coli DH5a); assay: Drug susceptibility test (MIC), NDM-1-producing strain; format: cell-based; conditions: Escherichia coli
Experimental: as §1, §2, §3, §4

NDM-1 = NDM-1 (Klebsiella pneumoniae, UniProt C7C422); assay: Inhibition constant (Ki) measurement test, NDM-1; format: biochemical; conditions: imipenem substrate, enzyme 10 nM, 30° C., Lineweaver-Burk; read-out: Inhibition constant Ki NDM-1
Experimental: as §5, §6

[7] = system: strains of Acinetobacter that produce class B β-lactamases; assay: Drug susceptibility test 3; format: cell-based; conditions: addition of compound A
HeLa cells = assay: Toxicity evaluation test (MTT assay); format: cell-based; conditions: various concentrations
Experimental: Various concentrations of a test substance (compound A) or staurosporine were added to HeLa cells, and live cells were counted using an MTT assay kit (Promega Cat No. G4000).

[8] = Reverse mutation test (Ames test); format: cell-based; conditions: entrusted to UBE Scientific Analysis Laboratory, Inc.
Excerpt: Compound A was used as a test substance.

[9] = system: class B β-lactamase (IMP-1, NDM-1, or VIM-2); assay: β-Lactamase inhibitory activity measurement test (imipenem decomposition); format: biochemical; conditions: test substance 0, 1, 10, 100 μM; enzyme 10 nM; imipenem 100 μM
Experimental: Each individual class B β-lactamase (IMP-1, NDM-1, or VIM-2; final concentration: 10 nM), imipenem (final concentration: 100 μM), and each individual test substance (compound A or compound Z shown below; final concentrations: 0, 1, 10, 100 μM) were mixed in an HEPES buffer. The imipenem decomposition activity (Dabs/min) under the conditions of absorbance: 298 nm and temperature: 30° C. was measured. The imipenem decomposition activity when no test substance was added was defined as 100%, and the imipenem residual decomposition activity when each test substance was individually added was plotted.

[10] = system: bacteria (K. pneumoniae) in which a plasmid encoding NDM and VIM was introduced; assay: Mouse abdominal infection model, K. pneumoniae NDM and VIM strain; format: in vivo, mice; conditions: antimicrobial drug 0.8 mg/kg or 4 mg/kg, test substance 10 mg/kg
Experimental: The laboratory strain grown overnight on a Mueller-Hinton agar medium was scraped with a sterile swab, suspended in physiological saline, adjusted to 2-5×10^8 CFU/mL, and mixed with an equal amount of a 10% mucin solution (1-2.5×10^8 CFU/mL) to prepare a bacterial liquid. Mice (Crl:CD1(ICR), male, 4 weeks old (Charles River Laboratories Japan, Inc.)) acclimated for 4 days after arrival were weighed, and then infected by intraperitoneal administration of 250 μL of the prepared bacterial liquid per mouse. An antimicrobial drug (meropenem trihydrate (WAKO 137-15674)) and the test substance were dissolved in physiological saline. A first intraperitoneal administration of the antimicrobial drug (0.2 mg/kg) and/or the test substance (100 mg/kg) was performed 1 hour after infection. A second administration was performed 3 hours after infection, in the same manner as the first administration (up to this point, day 0).
The animal study was performed in the same manner as in Test Example 12, except that in addition to a strain of Escherichia coli in which a plasmid encoding a class B lactamase (IMP-1) was introduced, bacteria (K. pneumoniae) in which a plasmid encoding NDM and VIM was introduced were used as a laboratory strain, compound I was administered as a test substance, […], and the dosage of the test substance was 10 mg/kg. […]

[11] = read-out: MIC CAZ + compound A (10 μg/ml)
[12] = read-out: MIC MPM + compound A (10 μg/ml)
[13] = read-out: MIC MPM + compound A (50 μg/ml)
[14] = read-out: MIC CAZ + compound A (50 μg/ml)

Chain of IMP-1 (P52699 19-246, looked up, species assumed): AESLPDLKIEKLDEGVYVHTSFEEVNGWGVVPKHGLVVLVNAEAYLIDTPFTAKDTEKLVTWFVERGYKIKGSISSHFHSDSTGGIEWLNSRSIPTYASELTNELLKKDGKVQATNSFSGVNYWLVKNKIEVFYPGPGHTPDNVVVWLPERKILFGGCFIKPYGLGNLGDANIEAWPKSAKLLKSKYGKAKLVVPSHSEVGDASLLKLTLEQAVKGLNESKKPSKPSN
Chain of NDM-1 (C7C422 29-270, looked up, species assumed): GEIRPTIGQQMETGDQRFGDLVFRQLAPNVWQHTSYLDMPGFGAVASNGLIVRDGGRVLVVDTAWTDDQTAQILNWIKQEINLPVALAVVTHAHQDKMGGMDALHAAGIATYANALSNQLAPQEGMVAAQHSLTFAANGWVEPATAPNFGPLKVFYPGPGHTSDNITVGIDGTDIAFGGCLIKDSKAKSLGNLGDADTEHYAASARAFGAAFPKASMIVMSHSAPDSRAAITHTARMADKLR

Cc1oc(C)c(S(N)(=O)=O)c1C(=O)O [Compound A]
effect on MICs of the antimicrobial drugs (statement on Tables 1, 2, 4) [1]: decreases the MICs | MIC [2, 11]: 1 µg/mL | MIC [2, 12]: 0.031 µg/mL | MIC [2, 13]: 0.031 µg/mL | effect on MICs of the antimicrobial drugs (FIG. 3) [3]: decreases the MICs | Ki (VIM-2): 2800 nM | Ki (IMP-1): 220 nM | MIC [4, 11]: 0.25 µg/mL | MIC [4, 14]: 0.25 µg/mL | MIC [4, 12]: 0.016 µg/mL | MIC [4, 13]: 0.016 µg/mL | survival rate (FIG. 10) ([5]; meropenem 0.2 mg/kg and test substance 100 mg/kg intraperitoneal, 1 and 3 hours after infection): notably improved | MIC [6, 11]: 256 µg/mL | MIC [6, 14]: 64 µg/mL | MIC [6, 12]: 0.25 µg/mL | Ki (NDM-1): 9820 nM | effect on MICs of the antimicrobial drugs (FIG. 4) [7]: decreases the MICs | toxicity (live cells, MTT, FIG. 9) (HeLa cells): very low | Ames test result [8]: negative | β-lactamase inhibition (imipenem residual decomposition activity, FIG. 2) [9]: inhibit β-lactamases

CCc1c(C(=O)O)c(S(N)(=O)=O)c(CC)n1C [Compound I]
Ki (VIM-2): 20 nM | Ki (IMP-1): 2140 nM | survival rate (FIG. 11) ([5]; antimicrobial drug 0.8 mg/kg or 4 mg/kg, test substance 10 mg/kg): notably improved | survival rate (FIG. 12) [10]: notably improved | Ki (NDM-1): 840 nM
